Laboratory results from patent US9963514B2, “BAG3 receptor binding molecules for use as a medicament” (BIOUNIVERSA S.R.L., priority 2013, dated 2018).

Tests used:
J774 A1 cells [1] = experiment: Binding of FITC-BAG3 to J774 macrophages by flow cytometry, with competition by BAG3-specific peptides or anti-BAG3 F(ab')2; design: species or system murine
Method: J774 A1 cells (1×10^6 cells/ml) were incubated with different concentrations of BAG3 FITC protein ([…]). FITC-BSA (70 nM) was used as a negative control (grey). Fluorescence was analyzed by flow cytometry. (FIG. 10).
In particular, J774 cells were incubated with 14 nM FITC-BAG3 protein and with 625 nM BAG3-specific peptides (peptide 1, peptide 2, peptide 3, peptide 4, or a scrambled peptide) or with 420 nM of anti-BAG3 F(ab′) antibodies (mouse monoclonal antibodies AC1, AC2 and the polyclonal antibody produced in rabbit TOS2). Fragments F(ab′) 2 of rabbit or mouse IgG were used as a negative control.

[2] = test system: pancreatic adenocarcinoma cells (PANC-1); experiment: Confocal fluorescence microscopy of rBAG3-FITC binding to PANC-1 cells; conditions: 0.1% NaN3, 1 h
Method: (§1) (FIG. 9). Confocal fluorescence microscopy analysis was performed to measure the binding of rBAG3-FITC to HCM, J774 A1, and PANC-1 cells. The BAG3 recombinant protein and the BSA (bovine serum albumin) (SIGMA) were conjugated to FITC using the FluoroTag Conjugation FITC kit (SIGMA) following the manufacturer's instructions. Equal amounts of rBAG3-FITC and BSA-FITC were added to the three cell lines in the presence of 0.1% NaN3 for 1 h. β-integrin protein was used as a positive control. Fluorescence was analyzed using a Zeiss LSM confocal microscope.

heart muscle cells (HCM) = experiment: Confocal fluorescence microscopy of rBAG3-FITC binding to HCM cells; conditions: 0.1% NaN3, 1 h
Method: as §1

J774 A1 cells [3] = experiment: Confocal fluorescence microscopy of rBAG3-FITC binding to J774 cells; design: species or system murine; conditions: 1 h
Method: The binding of the BAG3 protein to the cell surface of the J774 cells was then confirmed through conjugation of the recombinant protein with a fluorophore (FIG. 8). The BAG3 recombinant protein was then conjugated to FITC using the FluoroTag Conjugation FITC kit (SIGMA). Equal amounts of BSA-FITC (negative control) and rBAG3-FITC were added to the culture medium for 1 h. The cells were then fixed with a 3.7% formaldehyde solution and analyzed with a Zeiss LSM confocal microscope.
as §1, with “Confocal” for “(FIG. 9). Confocal”

[4] = test system: J774 murine monocyte cell line; experiment: Macrophage activation: nitrite production with Griess reagent (Example 8); assay type: cell-based; conditions: 24 h
Method: J774 cells were plated at a 60% confluence and incubated for 24 h with the BAG3 recombinant protein at concentrations of 10, 30, or 100 ng/ml. The nitrites production was verified in the culture medium using Griess reagent (1% sulphanilamide, 0.1% naphthyl ethylenediamine, 5% phosphoric acid) and measured using a Beckman DU-62 spectrophotometer at […].
The BAG3 recombinant protein was then used in macrophage activation assays in order to determine a possible role of the protein released in the serum in relation to the blood cells. To this end, the J774 murine monocyte cell line was treated with the BAG3 recombinant protein at different concentrations, using a pro-inflammatory agent, such as lipopolysaccharide (LPS), as a positive control. The activation of monocytes was measured by assay of nitrites. (FIG. 7).

[5] = test system: cyclo-oxygenase-2 (COX-2); experiment: Effect of rBAG3 on COX-2 expression in J774 cells (Western blot); assay type: cell-based, murine; conditions: 20 hours
Method: (§2) In order to explore the functional consequences of the binding of BAG3 to macrophages, we tested the effect of rBAG3 expression on inducible nitric oxide synthase (iNOS) and cyclo-oxygenase-2 (COX-2) in the cells. J774 cells at 80% confluence were incubated with a control medium, BSA, LPS or rBAG3 for 20 hours. Polymyxin was added to verify the presence of non-specific effects of endotoxins still present after the purification of the BAG3 recombinant protein. COX-2 and iNOS were analyzed in cell lysates by Western blotting.

J774 A1 macrophages [6] = experiment: Nitrite release by J774 A1 macrophages incubated with rBAG3 (Example 12); assay type: cell-based, murine; conditions: J774 A1 cells, 24 hours
Method: J774 A1 cells at 80% confluence were incubated with a control medium, BSA, LPS, or rBAG3 for 24 hours. […] supernatant from each sample was incubated with […] Griess reagent; the optical density at 550 nm (OD550) was measured with a Beckman DU62 spectrophotometer. The nitrite concentration was assessed by comparing the sample's OD at 550 nm with that of a standard sodium nitrite curve (FIG. 12).

[7] = test system: inducible nitric oxide synthase (iNOS); experiment: Effect of rBAG3 on iNOS expression in J774 cells (Western blot); assay type: cell-based, murine; conditions: 20 hours
Method: as §2

J774 A1 macrophages [8] = experiment: IL-6 release by J774 A1 macrophages incubated with rBAG3 (ELISA, Example 13); assay type: cell-based, murine; conditions: J774A.1 cells, 5 hours
Method: J774A.1 cells at 80% confluence were incubated with a control medium, BSA, LPS, or BAG3 for 5 hours. IL-6 was measured in the cell culture medium using an ELISA test. IL-6 concentration was assessed by comparing the sample's ODs with that of a standard IL-6 recombinant curve (FIG. 13).

With “FITC-BSA: bovine serum albumin conjugated to FITC, negative control [reference compound]” the “FITC-BSA positive cell % (±D.S.)” value (J774 A1 cells [1]; J774 cells, FITC-BSA negative control, flow cytometry) was 4.04 (±0.06) %.
With “FITC-rBAG3: BAG3 recombinant protein conjugated to FITC using the FluoroTag Conjugation FITC kit” the “binding to pancreatic adenocarcinoma cells (PANC-1)” value [2] was “not”, the “FITC-rBAG3 positive cell % (±D.S.)” value (J774 A1 cells [1]; J774 cells, FITC-rBAG3 alone, flow cytometry) was 15.7 (±0.45) % and the “(FITC-rBAG3)-(FITC-BSA) positive cell % (±D.S.)” value (J774 A1 cells [1]; J774 cells, FITC-rBAG3 minus FITC-BSA) was 11.06 (±0.45) %. For the same substance, the “binding of FITC-BAG3 to macrophages of the J774 cell line” value (J774 A1 cells [1]; flow cytometry, 7, 14 and 70 nm FITC-BAG3) was “binds the macrophages of the J774 cell line”, the “binding to heart muscle cells (HCM)” value (heart muscle cells (HCM)) was “not” and the “binding to the cell surface of J774 macrophages” value (J774 A1 cells [3]; listed as BAG3 recombinant protein bound to fluorescein isothiocyanate (FITC)) was “binds the surface of macrophages”. For the same substance, the “binding to the cell surface of J774 macrophages” value (J774 A1 cells [3]; listed as rBAG3-FITC) was “confirmed”.
In the case of “rBAG3: BAG3 recombinant protein with a His tag”, the “increase of nitrite production compared to the control” value ([4]; J774 cells, 100 ng/ml, p<0.001) was 200%, the “nitrite production, dependence on dose” value ([4]; J774 cells, 10, 30 or 100 ng/ml) was “dose-dependent” and the COX-2 enzyme levels [5] was “increased”. The release of nitrite (J774 A1 macrophages [6]) was “induces the release of nitrite”, the iNOS enzyme levels [7] was “increased” and the “release of interleukin-6 (IL-6)” value (J774 A1 macrophages [8]) was “induces the release of interleukin-6 (IL-6)”.
